Here are results for 7 molecules from patent US11623944B2, “Paenibacillus strain, antifungal compounds, and methods for their use” (Bayer CropScience LP, priority 2015, dated 2023).

Assay [1] deals with Paenibacillus sp. strain NRRL B-50972. Put plainly: Antibiotic sensitivity on sLB agar. The class given is cell-based. The conditions noted are these: growth after 24, 48, 72 hours at 30° C.
The test system of assay [2] is Botrytis cinerea (BOTRCI). Put plainly: In vitro antifungal 96-well plate assay (PRESTOBLUE). The class given is cell-based. The note with it: Minimum Inhibitory Concentration for 80%. How it is done:
The in vitro antifungal 96-well plate assay utilizes the resazurin-based cell viability reagent PRESTOBLUE® as an indicator for fungal growth. […] The assay was prepared with three agricultural-relevant fungal diseases: Alternaria solani ([…]), Colletotrichum lagenarium (COLLLA), and Botrytis cinerea (BOTRCI).

For assay [3], the system named is Xanthomonas campestris (XANTAV). Description: In vitro antibacterial 96-well plate assay (absorbance).
Experimental: (§1) The in vitro antibacterial 96-well plate assay uses absorbance as an indicator for bacterial growth. The assay measures the potency of a sample to inhibit bacterial growth by comparing the absorbance of the untreated wells to the sample wells. The last dilution/concentration that inhibits the growth of the bacteria is called the MIC (minimum inhibitory concentration) and this value can be used to compare the efficacy of different samples. The assay was evaluated with three agricultural-relevant bacterial diseases: Xanthomonas campestris (XANTAV), Pseudomonas syringae (PSDM™), and Erwinia carotovora (ERWICA).
Assay [4] relates to Alternaria solani (ALTESO). Description: In vitro antifungal 96-well plate assay (PRESTOBLUE). The note with it: for potency of asparagine analogue relative to its glutamine counterpart: Fusaricidin A vs Fusaricidin B, LiF08a vs LiF08b; for potency of asparagine analogue relative to its glutamine counterpart / relative potency of analogues differing at amino acid positions (2) and (3): FIG. 17; for relative potency of analogues differing at amino acid positions (2) and (3): Fusaricidin A, LiF05a, LiF06a, LiF08a compared; for Efficacy in % found: 0.25 mg/mL, alone. The class given is cell-based.

For assay [5], the system named is Erwinia carotovora (ERWICA). Description: In vitro antibacterial 96-well plate assay (absorbance). The note with it: NDR = no inhibition of bacterial growth at the highest concentrations tested.
Experimental: as §1
Assay [6] concerns Colletotrichum lagenarium (COLLLA). Description: In vitro antifungal 96-well plate assay (PRESTOBLUE). The class given is cell-based. The note with it: Minimum Inhibitory Concentration for 80%.
In assay [7] the test system is Pseudomonas syringae (PSDMTM). Description: In vitro antibacterial 96-well plate assay (absorbance). The note with it: NDR = no inhibition of bacterial growth at the highest concentrations tested.
Experimental: as §1

Where a SMILES comes first, the peptide text is derived from it. Bridges are numbered along the chain shown (N, C = ends). [ ]: non-standard residue; d: D form. The star is where a group is joined. ξ: configuration not given here. Pentadecanoyl(3ξ-OH,15-Gua) = N=C(N)NCCCCCCCCCCCCC(O)CC(=O)*; d(aThr) = C[C@@H](O)[C@@H](N)C(=O)O

On to `O=C(N[C@H](CO)[C@H](O)c1ccc([N+](=O)[O-])cc1)C(Cl)Cl` [Chloramphenicol], for which the Sensitive/Resistant result in assay [1] (antibiotic 5 μg/mL) is “Resistant”.

Regarding `CC[C@H]1OC(=O)[C@H](C)[C@@H](O[C@H]2C[C@@](C)(OC)[C@@H](O)[C@H](C)O2)[C@H](C)[C@@H](O[C@@H]2O[C@H](C)C[C@H](N(C)C)[C@H]2O)[C@](C)(O)C[C@@H](C)C(=O)[C@H](C)[C@@H](O)[C@]1(C)O` [Erythromycin], the Sensitive/Resistant result in assay [1] (antibiotic 5 μg/mL) was “Sensitive”.

On to `CC(C)[C@@H]1NC(=O)[C@@H](C(C)C)NC(=O)[C@@H](NC(=O)CC(O)CCCCCCCCCCCCN=C(N)N)[C@@H](C)OC(=O)[C@@H](C)NC(=O)[C@@H](CC(N)=O)NC(=O)[C@@H]([C@@H](C)O)NC1=O` (some centres unmarked) [Fusaricidin A] ({Pentadecanoyl(3ξ-OH,15-Gua)}-T[dV]V[d(aThr)][dN][dA]; ester 1-C), for which the “MIC80 BOTRCI” value in assay [2] was determined as 1.5 ppm. Also, the “MIC80 XANTAV” value in assay [3] turned out to be 24 ppm. The “potency of asparagine analogue relative to its glutamine counterpart” value in assay [4] was “over twice more potent”. Moreover, the “relative potency of analogues differing at amino acid positions (2) and (3)” value in assay [4] is “most potent”. Moreover, in assay [4] (Minimum Inhibitory Concentration for 80%), the “MIC80 ALTESO” value is 1.6 ppm. For the same molecule, the entries for the “Efficacy in % found” value in assay [4] (Table 23) and in assay [4] (Table 24) were 39.0% and 42.0%, respectively. Moreover, the “MIC80 ERWICA” value in assay [5] was determined as 75 ppm. In assay [6], the “MIC80 COLLLA” value is recorded as 6.3 ppm. The “MIC80 PSDMTM” value in assay [7] is reported as “NDR*”.

For the molecule `CC[C@@H](C)[C@H]1NC(=O)[C@@H](NC(=O)CC(O)CCCCCCCCCCCCN=C(N)N)[C@@H](C)OC(=O)[C@@H](C)NC(=O)[C@@H](CC(N)=O)NC(=O)[C@@H]([C@@H](C)O)NC(=O)[C@H]([C@@H](C)CC)NC1=O` (some centres unmarked) [LiF08a] ({Pentadecanoyl(3ξ-OH,15-Gua)}-T[dI]I[d(aThr)][dN][dA]; ester 1-C), in assay [4], the “potency of asparagine analogue relative to its glutamine counterpart” value was “over twice more potent”; the “relative potency of analogues differing at amino acid positions (2) and (3)” value is “most potent”.

For `CCC[C@@H]1C[C@@H](C(=O)N[C@@H]([C@H]2O[C@H](SC)[C@H](O)[C@@H](O)[C@H]2O)[C@@H](C)O)N(C)C1` [Lincomycin], the Sensitive/Resistant entry in assay [1] (antibiotic 25 μg/mL) is on record as “Resistant”.

As for `CN[C@@H]1[C@H](O)[C@H](NC)[C@H]2O[C@@]3(O)C(=O)C[C@@H](C)O[C@H]3O[C@@H]2[C@H]1O` [Spectinomycin], in assay [1] (antibiotic 100-250 μg/mL), the Sensitive/Resistant entry is reported as “Resistant (growth, albeit reduced,”.

In the case of `CN(C)[C@@H]1C(=O)C(C(N)=O)=C(O)[C@@]2(O)C(=O)C3=C(O)c4c(O)cccc4[C@@](C)(O)[C@H]3C[C@@H]12` [Tetracyclin], in assay [1] (antibiotic 5 μg/mL), the Sensitive/Resistant entry is reported as “Sensitive”.
